From ChEMBL document CHEMBL3507680, “University of Dundee, Gates Library screen for HepG2 cell viability”

Test: Human HepG2 cell viability assay in 384 well format
Type: toxicity, cell-based
Set-up: dose 125 nL, time 70.5 hour; concentration not given beside the values
Details: HepG2 cells, read-out: Inhibition

Point of comparison: `CC(NC(N)=O)C(=O)NCc1cc(Br)ccc1F` (stereo unspecified), cytotoxicity at 70.5 h -7.15%. Against it:
- O=c1[nH]c(-c2ccccn2)nc2c1CCN(Cc1cccc(O)c1)C2 — higher, -4.95%
- COc1ccc(CN2CCc3c(nc(-c4ccccn4)[nH]c3=O)C2)cc1 — higher, 13.1%
- Cn1cccc1CN1CCc2c(nc(-c3ccccn3)[nH]c2=O)C1 — higher, -2.89%
- Cc1occc1-c1nc(NC2CCCC2)ncc1-c1ccccn1 — higher, 1.09%
- Cn1cc(CN2CCCC(CCCc3ccccn3)(C(N)=O)C2)cn1 (stereo unspecified) — lower, -8.02%
- CN(C)C(=O)CN1CCC(c2cccc(Cc3ccc(F)cc3)n2)CC1 — higher, 15.8%
- CCCC(=O)N1CCN(Cc2cc(-c3ccncc3)nn2C)CC1 — higher, 0.205%
- CCC(CC)C(=O)N1CCN(Cc2cc(-c3ccncc3)nn2C)CC1 — higher, 1.08%
- O=C(CC1CCCC1)N1CCOC(c2nc(-c3ncccn3)no2)C1 (stereo unspecified) — higher, -1.63%
- Cc1noc2nc(C3CCCN(Cc4cccnc4)C3)cc(C(F)F)c12 (stereo unspecified) — higher, -3.71%
- O=C(C1CCCC1)N1CCCC(c2nc(O)cc(-c3ccncc3)n2)C1 (stereo unspecified) — higher, 5.93%
- CNC(=O)Nc1cnc2cc(Cl)ccc2c1O — higher, 10%
- OC1(Cn2ccc3ncccc32)CCN(Cc2cccs2)CC1 — higher, -0.455%
- Cc1cc(CN2CCC(O)(Cn3ccc4ncccc43)CC2)c(C)s1 — higher, 4.82%
- Cc1ccc(=O)n(CC2(O)CCN(Cc3cnc(N(C)C)nc3)CC2)n1 — higher, 17.6%
- O=C(c1ccncc1)N1CCCC(c2cc(C(F)F)n3ncnc3n2)C1 (stereo unspecified) — higher, -3.18%
- O=C(c1ccccn1)N1CCCC(c2cc(C(F)F)n3ncnc3n2)C1 (stereo unspecified) — higher, -4.56%
- CC1CCCN(Cc2c(C3CC3)[nH]c3ncccc23)C1 (stereo unspecified) — higher, -4.53%
- Cc1cc(-c2cnc(NC3CCCC3)nc2-c2ccoc2)on1 — higher, -2.38%
- Cc1ccc([C@]2(O)CC[C@H]3CN(Cc4ccncc4)C[C@H]32)nc1 — higher, 36%
- Cc1ccc([C@]2(O)CC[C@H]3CN(Cc4cccnc4)C[C@H]32)nc1 — higher, 9.25%
- O=C(c1ccco1)N1CCCC(c2cc(C(F)(F)F)n3ncnc3n2)C1 (stereo unspecified) — higher, 28.3%
- c1cnc2[nH]c(C3CCCC3)c(CN3CCOCC3)c2c1 — lower, -9.59%
- COc1ccc(C2CCCN2c2cnc3ccccc3n2)c(OC)c1 (stereo unspecified) — higher, -4.21%
- COc1cccc(CCNC(=O)c2ccc(=O)n(C)c2)c1 — higher, -2.94%
- N#Cc1cnc(NCc2cccc(C(=O)N3CCCC3)c2)c(Cl)c1 — higher, -1.9%
- Cc1ccc(N2CCCN(C(=O)c3cc(CC(C)C)n[nH]3)CC2)nn1 — higher, 12.9%
- COCCn1nc(C(=O)N2CCN(C)CC2C)ccc1=O (stereo unspecified) — higher, -4.08%
- CC(=O)NC1CCN(C(=O)Nc2cccc(C(F)(F)F)c2)CC1 — higher, 20.6%
- Cc1ccc(C)c(Oc2ccc(CNC(=O)C3CNC(=O)N3)cn2)c1 (stereo unspecified) — higher, -1.21%
- O=C(Nc1ccc(-c2csnn2)cc1)N1CC[C@H](O)C1 — lower, -13.4%
- COc1cccc(-c2ccc(CNC(=O)c3ccc(=O)n(C)c3)cc2)c1 — higher, 6.19%
- CNC(=O)NCCc1csc2ccccc12 — higher, -0.00639%
- O=C(NCC1CCN(CCc2ccccc2)C1)NCC1(O)CCC1 (stereo unspecified) — higher, -3.77%
- CCOc1cccc(CCNC(=O)NC2CCc3[nH]ncc3C2)n1 (stereo unspecified) — higher, 24.3%
- CS(=O)(=O)c1cccc(Cl)c1C(=O)NCCN1C(=O)CCC1=O — higher, 16.3%
- COc1ccncc1NC(=O)C1(c2ccccc2)CC1 — lower, -8.43%
- CN(CCCOc1ccccc1)Cc1nccn1C — higher, -4.56%
- Cc1nc(CNCc2ccc(N3CCC(CO)CC3)nc2)cs1 — higher, -1.44%
- CC(=O)N1CCC(C(=O)N(CC(F)F)c2cccc(Cl)c2)CC1 — higher, 0.334%
- NC(=O)C(NC(=O)CSCc1ccc(Cl)s1)c1ccccc1 (stereo unspecified) — higher, -1.53%
- O=C(Nc1cccnc1)C1=Cc2ccccc2OC1 — higher, 7.74%
- CCC(C)NC(=O)CS(=O)(=O)Cc1ccccc1Cl (stereo unspecified) — lower, -7.35%
- CNC(=O)C1CCCCN1C(=O)c1csc(-c2ccc(C)cc2)n1 (stereo unspecified) — lower, -9.54%
- COc1cccc(COC(C)C(=O)N(C)Cc2nnc3n2CCC3)c1 (stereo unspecified) — higher, -3.46%
- CC(C)N(C)CCCNC(=O)c1cnn(C(C)C)c1C(F)(F)F — higher, 13.9%
- O=S1(=O)CCC(c2nnc(-c3cnc4onc(C5CCCC5)c4c3)o2)C1 (stereo unspecified) — higher, 20.9%
- COc1nc(N2CCNCC2)ncc1Br — lower, -9.1%
- CNC(=O)Cc1noc(-c2cc3c(s2)CCCC3)n1 — lower, -8.17%
- Cc1cccc2nc(CN3CCC(Cn4ccnn4)CC3)cc(=O)n12 — higher, -3.54%
- CC(C)(C)C(=O)N1CCCN(c2ncnc3nc(N)ccc23)CC1 — higher, -1.35%
- CC(C)OCCC1CCCCN1S(C)(=O)=O (stereo unspecified) — lower, -8.81%
- CCN(CC)S(=O)(=O)NC(C)C(=O)N(C)C (stereo unspecified) — higher, 0.169%
- Fc1cccc(C(NCc2ncc[nH]2)c2ccccn2)c1 (stereo unspecified) — higher, -6.19%
- Clc1cccc(C(NCc2ncc[nH]2)c2ccccn2)c1 (stereo unspecified) — higher, 1.18%
- COc1ccc(CNC(=O)N2CCc3sccc3C2)cc1O — lower, -10.2%
- O=C(Cn1nc(-c2ccc(F)cc2)oc1=O)NCC1CCCO1 (stereo unspecified) — higher, -3.49%
- CN(CC(=O)N1CCCC1)C(=O)c1ccccc1F — lower, -13.9%
- Cc1noc(CNc2cc3c(cc2Cl)OCCCO3)n1 — lower, -14.8%
- CS(=O)(=O)NCCC(=O)Nc1ccccc1N1CCc2ccccc21 — lower, -22.1%
- CCN(Cc1cc(Br)ccc1F)C(=O)C(C)NC(N)=O (stereo unspecified) — lower, -19.1%
- Cc1nc(Cn2cnc3c(c(Br)nn3C)c2=O)cs1 — higher, 11.6%
- Cc1nnc(CN(C)CCc2nc(-c3cccc(Cl)c3)no2)n1C — lower, -13.1%
- N#CCCN(CC(=O)Nc1ccc(Br)cc1Cl)Cc1cccnc1 — higher, -1.52%
- N#Cc1cc(F)ccc1NCC1CCN(S(=O)(=O)C(F)F)CC1 — lower, -14.3%
- O=C(CCC(F)(F)F)NCC1CCCS1 (stereo unspecified) — higher, -6.67%
- Cc1nc(NS(=O)(=O)c2ccc(F)c(Br)c2)no1 — higher, -2.96%
- Cc1cc(F)cc(S(=O)(=O)Nc2noc(C)n2)c1 — higher, -1.08%
- O=c1oc(-c2ccc(F)cc2)nn1CC1CCCCO1 (stereo unspecified) — higher, -3.87%
- O=C(CN1CCCC(c2ncc[nH]2)C1)NCCCN1CCCCCC1=O (stereo unspecified) — lower, -10.5%
- CCc1noc(CNc2cc3c(cc2Cl)OCCO3)n1 — higher, 15.1%
- COC(=O)C1CCCN1C(=O)c1ccc(Br)cc1F (stereo unspecified) — higher, 12.6%
- CCn1c(C)cc(C(=O)N2CCC(NC(=O)c3cc(C)no3)CC2)c1C — lower, -112%
- O=C(CNc1cc(-n2cnnn2)ccc1F)Nc1ccccc1Cl — lower, -114%
- Cc1ccccc1CC(=O)NS(=O)(=O)c1cccc2cnccc12 — lower, -40.8%
- NC(=O)CCCNC(=O)Cc1csc(Cc2ccccn2)n1 — lower, -135%
- Cc1nc(-c2ccco2)ccc1C(=O)NCCC(=O)N1CCCCC1 — lower, -103%
- Cc1nc(-c2ccco2)ccc1C(=O)NCCN1CCN(C)CC1 — lower, -114%
- N#Cc1c(F)cccc1Nc1cnn(CC(N)=O)c1 — lower, -112%
- COC(C)Cc1nc(-c2cnn3c(C)cc(C)nc23)no1 (stereo unspecified) — lower, -97.5%
- Cc1cc(C)c(S(=O)(=O)Nc2cccc3c2OCCO3)cc1C(=O)O — lower, -27.2%
- CCC(CC)NC(=O)c1nc2n(n1)-c1ccccc1S(=O)(=O)N2 — lower, -82.7%
- Cc1ncc(C(=O)OCC2CCN(c3ccccc3)C2)s1 (stereo unspecified) — lower, -126%
- Cn1cccc1C(=O)NC(C)(C(N)=O)c1cccc(Cl)c1 (stereo unspecified) — lower, -98.6%
- N#Cc1c(F)cccc1Nc1cnn(CC(O)CN2CCOCC2)c1 (stereo unspecified) — lower, -102%
- NC(=O)C1CCN(c2ccc3cc(Br)ccc3n2)C1 (stereo unspecified) — lower, -89.2%
- CCN(CC)C(=O)CCc1nc(-c2cnn3c(C)cc(C)nc23)no1 — lower, -121%
- CNS(=O)(=O)CC(=O)N1CCCc2cc(Br)ccc21 — lower, -88.8%
- N#Cc1c(Cl)nsc1NCc1cccnc1OC1CCCC1 — lower, -94.1%
- O=C(OCC1CCCN(C(=O)c2ccccc2)C1)c1cscn1 (stereo unspecified) — lower, -88.6%
- CN(Cc1cnn(C)c1)C(=O)CCS(=O)(=O)c1ccc2c(c1)OCCO2 — lower, -112%
- CCOc1ccc(CNC(=O)N(C)CC(C)(C)O)cc1C — lower, -60%
- CCn1nc(C)cc1C(=O)N1CCC(Nc2ccc(C)nn2)CC1 — lower, -85.5%
- CN(Cc1cnn(C)c1)C(=O)CCc1ccc2c(c1)OCO2 — lower, -58.4%
- CN(Cc1cc(Br)cn1C)C(=O)c1cscn1 — higher, -0.963%
- CNS(=O)(=O)Cc1ccccc1CNc1ccc(C#N)cn1 — higher, 22.4%
- COc1cc(CNC(=O)Nc2nnc(C(C)C)s2)ccc1O — lower, -10.5%
- COc1cc(CNC(=O)Nc2nnc(C(F)(F)F)s2)ccc1O — higher, 2.56%
- CNS(=O)(=O)Cc1ccc(CNc2ccc(C#N)cn2)cc1 — higher, -6.5%
- Cc1nnc2n1CCN(C(=O)c1cnc3c(cnn3C(C)C)c1)C2 — higher, 25.5%
- CCCN1CCCN(C(=O)Nc2ccc3c(c2)OCO3)CC1 — lower, -7.91%
- Cc1nnc2n1CCN(C(=O)c1cnc3c(cnn3CC(C)C)c1)C2 — higher, 25.8%
- CCCn1[nH]cc/c1=N\C(=O)CN1CCCC1c1cccn1C (stereo unspecified) — higher, -2.18%
- O=C(NS(=O)(=O)Cc1cc(-c2ccccc2)no1)C1CCOCC1 — higher, -1.22%
- CCOCC(=O)NC(C)Cc1ccccc1Br (stereo unspecified) — higher, -4.95%
- CS(=O)(=O)CCC(=O)NC(c1ccc(F)cc1)C(F)(F)F (stereo unspecified) — higher, -1.59%
- Cc1cc(S(=O)(=O)N2CC[C@@H](O)C2)c(Cl)cc1F — higher, -6.21%
- COCCN1CCN(Cc2c(C3CCNCC3)[nH]c3ncccc23)CC1 — higher, -2.48%
- c1cnc2c(c1)cc([C@@H]1CCCO1)n2CCN1CCOCC1 — higher, 0.0365%
- Cc1ccc(CNCc2ccc(N3CCC(CO)CC3)nc2)c(C)c1 — higher, -5.56%
- Cc1ccc(CN(Cc2ncc[nH]2)C2CC(C)(C)NC(C)(C)C2)o1 — higher, 9.13%
- Cc1ccc([C@]2(O)CC[C@H]3CN(Cc4cccc(F)c4F)C[C@H]32)nc1 — higher, 5.11%
- Cc1ccc([C@]2(O)CC[C@H]3CN(Cc4ccccc4F)C[C@H]32)nc1 — lower, -9.24%
- CC(C)C(N)C1=N/C(=C2\N=CN=N2)NO1 (stereo unspecified) — higher, 5.13%
- CC(C)CC(N)C1=N/C(=C2\N=CN=N2)NO1 (stereo unspecified) — higher, 29.4%
